Test results: publication PMC7680422 (European journal of medicinal chemistry, 2020)
Entries after “also recorded” stand apart in the source; their conditions may differ.

How the values were obtained:
[1] = test system: methamphetamine self-administration; settings: short access and long access groups; cited from earlier work
[2] = Phase I metabolic stability in rat liver microsomes; format: in vitro ADME
[3] = Phase I metabolic stability in mouse liver microsomes; format: in vitro ADME
[4] = test system: Swiss Webster mice; experiment: Locomotor activity studies in mice; settings: i.p., doses up to 30 mg/kg, distance travelled
[5] = target: dopamine transporter (DAT) (Rattus norvegicus, UniProt P23977); experiment: DAT binding assay, [3H]WIN35,428, rat striatum membranes
dopamine transporter (DAT), sequence (P23977 whole entry): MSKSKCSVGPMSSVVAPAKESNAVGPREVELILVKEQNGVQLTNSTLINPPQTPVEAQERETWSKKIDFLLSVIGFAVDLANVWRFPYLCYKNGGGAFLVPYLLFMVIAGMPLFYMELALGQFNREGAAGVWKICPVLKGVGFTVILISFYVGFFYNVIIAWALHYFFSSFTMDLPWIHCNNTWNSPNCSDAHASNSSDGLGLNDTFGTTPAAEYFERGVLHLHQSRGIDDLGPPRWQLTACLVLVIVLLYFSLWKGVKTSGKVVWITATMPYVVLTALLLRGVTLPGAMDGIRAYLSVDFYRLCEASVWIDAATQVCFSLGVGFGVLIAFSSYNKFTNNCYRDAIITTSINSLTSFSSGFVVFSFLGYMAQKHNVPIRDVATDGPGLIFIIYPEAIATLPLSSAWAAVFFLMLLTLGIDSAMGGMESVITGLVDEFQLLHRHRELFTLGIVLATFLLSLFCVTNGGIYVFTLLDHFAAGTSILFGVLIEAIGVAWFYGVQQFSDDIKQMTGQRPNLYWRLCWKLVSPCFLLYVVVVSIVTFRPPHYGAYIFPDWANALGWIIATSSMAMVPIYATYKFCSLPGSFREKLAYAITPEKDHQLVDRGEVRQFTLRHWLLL

## CC(O)CN1CCN(CC[S+]([O-])C(c2ccc(F)cc2)c2ccc(F)cc2)CC1 (stereo not shown) [Compound 1]
[1]
  attenuation of methamphetamine self-administration (in words): effective in attenuating this behavior in both groups

## [O-][S+](CCN1CCN(CC(O)Cc2ccccc2)CC1)C(c1ccc(F)cc1)c1ccc(F)cc1 (stereo not shown) [Compound 2]
[1]
  attenuation of methamphetamine self-administration (in words): not effective in either rodent population

## CC(O)CN1CCN(CCSC(c2ccc(F)cc2)c2ccc(F)cc2)CC1 (stereo not shown) [Compound 3a]
[1]
  attenuation of methamphetamine self-administration (in words): effective only in the long access group

## Fc1ccc(CN2CCC(NCCSC(c3ccc(F)cc3)c3ccc(F)cc3)CC2)cc1 [Compound 6b, N-(2-((Bis(4-fluorophenyl)methyl)thio)ethyl)-1-(4-fluorobenzyl)piperidin-4-amine]
[2]
  metabolic stability / susceptibility to phase I metabolism (in words): relatively metabolically stable

## [O-][S+](CCNC1CCN(Cc2ccc(F)cc2)CC1)C(c1ccc(F)cc1)c1ccc(F)cc1 (stereo not shown) [Compound 7, N-(2-((Bis(4-fluorophenyl)methyl)sulfinyl)ethyl)-1-(4-fluorobenzyl)piperidin-4-amine]
[3]
  metabolic stability / susceptibility to phase I metabolism (in words): susceptibility to phase I metabolism; also recorded: significantly less stable
[4]
  stimulation of ambulatory activity (in words): only minimal stimulation of ambulatory activity
[2]
  metabolic stability / susceptibility to phase I metabolism (in words): relatively metabolically stable

## OC(Cc1ccccc1)CN1CCC(NCCSC(c2ccc(F)cc2)c2ccc(F)cc2)CC1 (stereo not shown) [Compound 10, 1-(4-((2-((Bis(4-fluorophenyl)methyl)thio)ethyl)amino)piperidin-1-yl)-3-phenylpropan-2-ol]
[2]
  metabolic stability / susceptibility to phase I metabolism (in words): relatively metabolically stable

## [O-][S+](CCNC1CCN(CC(O)Cc2ccccc2)CC1)C(c1ccc(F)cc1)c1ccc(F)cc1 (stereo not shown) [Compound 11, 1-(4-((2-((Bis(4-fluorophenyl)methyl)sulfinyl)ethyl)amino)piperidin-1-yl)-3-phenylpropan-2-ol]
[2]
  metabolic stability / susceptibility to phase I metabolism (in words): less stable; also recorded: susceptibility to phase I metabolism

## OC(CNC1CCN(CCSC(c2ccc(F)cc2)c2ccc(F)cc2)CC1)Cc1ccccc1 (stereo not shown) [Compound 16, 1-((1-(2-((Bis(4-fluorophenyl)methyl)thio)ethyl)piperidin-4-yl)amino)-3-phenylpropan-2-ol]
[2]
  metabolic stability / susceptibility to phase I metabolism (in words): relatively metabolically stable

## O=C(c1ccccc1)N1CCC(NCCSC(c2ccc(F)cc2)c2ccc(F)cc2)CC1 [Compound 19a, (4-((2-((Bis(4-fluorophenyl)methyl)thio)ethyl)amino)piperidin-1-yl)(phenyl)methanone]
[2]
  metabolic stability / susceptibility to phase I metabolism (in words): less stable; also recorded: susceptibility to phase I metabolism

## O=C(c1ccc(F)cc1)N1CCC(NCCSC(c2ccc(F)cc2)c2ccc(F)cc2)CC1 [Compound 19b, (4-((2-((Bis(4-fluorophenyl)methyl)thio)ethyl)amino)piperidin-1-yl)(4-fluorophenyl)methanone]
[2]
  metabolic stability / susceptibility to phase I metabolism (in words): less stable; also recorded: susceptibility to phase I metabolism

## O=C(c1ccccc1)N1CCC(NCC[S+]([O-])C(c2ccc(F)cc2)c2ccc(F)cc2)CC1 (stereo not shown) [Compound 21a, (4-((2-((Bis(4-fluorophenyl)methyl)sulfinyl)ethyl)amino)piperidin-1-yl)(phenyl)methanone]
[5]
  DAT over SERT selectivity: ~100 fold

## O=C(c1ccc(F)cc1)N1CCC(NCC[S+]([O-])C(c2ccc(F)cc2)c2ccc(F)cc2)CC1 (stereo not shown) [Compound 21b, (4-((2-((Bis(4-fluorophenyl)methyl)sulfinyl)ethyl)amino)piperidin-1-yl)(4-fluorophenyl)methanone]
[3]
  metabolic stability / susceptibility to phase I metabolism (in words): susceptibility to phase I metabolism; also recorded: significantly less stable
[4]
  stimulation of ambulatory activity (in words): only minimal stimulation of ambulatory activity
[2]
  metabolic stability / susceptibility to phase I metabolism (in words): relatively metabolically stable

## O=C(c1ccc(F)cc1F)N1CCC(NCCSC(c2ccc(F)cc2)c2ccc(F)cc2)CC1 [Compound 33, (4-((2-((Bis(4-fluorophenyl)methyl)thio)ethyl)amino)piperidin-1-yl)(2,4-difluorophenyl)methanone]
[3]
  metabolic stability / susceptibility to phase I metabolism (in words): susceptibility to phase I metabolism; also recorded: significantly less stable
[4]
  stimulation of ambulatory activity (in words): only minimal stimulation of ambulatory activity

## COC(=O)[C@H]1[C@@H](OC(=O)c2ccccc2)C[C@@H]2CC[C@H]1N2C [cocaine, reference compound]
[4]
  stimulation of ambulatory activity (in words): large, significant increase in ambulatory activity
